In the kinase profiling compilation of Christmann-Franck et al. (2016):

Assays:
Assay in all cases: KINOMEscan competition binding
Conditions in all cases: compound 0.5 µM
DAPK3 (human) = DAPK3 (human) (UniProt O43293)
CDKL1 (human) = CDKL1 (human) (UniProt Q00532)
AKT1 (human) = AKT1 (human) (UniProt P31749)
NIM1 (human) = NIM1 (human) (UniProt Q8IY84)
EPHB4 (human) = EPHB4 (human) (UniProt P54760)
TLK1 (human) = TLK1 (human) (UniProt Q9UKI8)
PIK3CA (human) = PIK3CA (human) (UniProt P42336)
ALK (human) = ALK (human) (UniProt Q9UM73)
[1] = molecular target: JAK1 JH2 pseudokinase (human) (UniProt P23458)
MTOR (human) = MTOR (human) (UniProt P42345)
NEK2 (human) = NEK2 (human) (UniProt P51955)
Chain of NEK2 (human) (P51955 whole entry, looked up): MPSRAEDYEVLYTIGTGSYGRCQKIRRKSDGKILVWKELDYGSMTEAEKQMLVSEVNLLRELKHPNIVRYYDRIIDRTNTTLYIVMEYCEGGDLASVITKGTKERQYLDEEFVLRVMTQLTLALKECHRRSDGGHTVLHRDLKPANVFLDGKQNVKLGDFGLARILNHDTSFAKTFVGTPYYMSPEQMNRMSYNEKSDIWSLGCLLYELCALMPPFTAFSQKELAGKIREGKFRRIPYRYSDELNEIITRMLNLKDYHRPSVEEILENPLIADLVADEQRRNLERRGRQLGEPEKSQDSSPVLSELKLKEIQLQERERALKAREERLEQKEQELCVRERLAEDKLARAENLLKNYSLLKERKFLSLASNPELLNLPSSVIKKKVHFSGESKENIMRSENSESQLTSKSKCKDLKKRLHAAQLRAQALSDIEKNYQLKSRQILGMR

NEK1 (human) = NEK1 (human) (UniProt Q96PY6)
RAF1 (human) = RAF1 (human) (UniProt P04049)
ACVR1B (human) = ACVR1B (human) (UniProt P36896)
Chain of ACVR1B (human) (P36896 whole entry, looked up): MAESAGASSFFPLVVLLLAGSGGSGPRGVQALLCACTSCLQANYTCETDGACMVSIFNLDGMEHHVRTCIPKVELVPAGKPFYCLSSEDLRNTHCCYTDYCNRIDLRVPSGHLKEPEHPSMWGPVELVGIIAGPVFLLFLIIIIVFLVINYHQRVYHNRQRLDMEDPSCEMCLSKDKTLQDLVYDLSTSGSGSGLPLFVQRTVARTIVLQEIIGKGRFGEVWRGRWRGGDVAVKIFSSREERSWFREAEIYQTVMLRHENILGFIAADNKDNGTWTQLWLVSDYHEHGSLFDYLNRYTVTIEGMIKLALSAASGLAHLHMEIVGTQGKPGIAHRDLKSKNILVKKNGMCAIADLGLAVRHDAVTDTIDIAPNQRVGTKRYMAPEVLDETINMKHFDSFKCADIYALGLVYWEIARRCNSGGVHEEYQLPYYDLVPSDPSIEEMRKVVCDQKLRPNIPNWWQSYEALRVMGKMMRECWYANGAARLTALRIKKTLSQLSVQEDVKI

STK33 (human) = STK33 (human) (UniProt Q9BYT3)
[2] = test system: BRAF (human), P15056 [V600E]
MARK1 (human) = MARK1 (human) (UniProt Q9P0L2)
PRKACA (human) = PRKACA (human) (UniProt P17612)
LIMK2 (human) = LIMK2 (human) (UniProt P53671)
CDK18 (human) = CDK18 (human) (UniProt Q07002)
CRK2 (P.falciparum) = CRK2 (P.falciparum) (UniProt P61075)
[3] = test system: PIK3CA (human), P42336 [I800L]
MAST1 (human) = MAST1 (human) (UniProt Q9Y2H9)
[4] = test system: ABL1 (human), P00519 [E255K]
MAP4K1 (human) = MAP4K1 (human) (UniProt Q92918)
[5] = test system: RET (human), P07949 [V804L]
LRRK2 (human) = LRRK2 (human) (UniProt Q5S007)
GAK (human) = GAK (human) (UniProt O14976)
IRAK3 (human) = IRAK3 (human) (UniProt Q9Y616)
Chain of IRAK3 (human) (Q9Y616 whole entry, looked up): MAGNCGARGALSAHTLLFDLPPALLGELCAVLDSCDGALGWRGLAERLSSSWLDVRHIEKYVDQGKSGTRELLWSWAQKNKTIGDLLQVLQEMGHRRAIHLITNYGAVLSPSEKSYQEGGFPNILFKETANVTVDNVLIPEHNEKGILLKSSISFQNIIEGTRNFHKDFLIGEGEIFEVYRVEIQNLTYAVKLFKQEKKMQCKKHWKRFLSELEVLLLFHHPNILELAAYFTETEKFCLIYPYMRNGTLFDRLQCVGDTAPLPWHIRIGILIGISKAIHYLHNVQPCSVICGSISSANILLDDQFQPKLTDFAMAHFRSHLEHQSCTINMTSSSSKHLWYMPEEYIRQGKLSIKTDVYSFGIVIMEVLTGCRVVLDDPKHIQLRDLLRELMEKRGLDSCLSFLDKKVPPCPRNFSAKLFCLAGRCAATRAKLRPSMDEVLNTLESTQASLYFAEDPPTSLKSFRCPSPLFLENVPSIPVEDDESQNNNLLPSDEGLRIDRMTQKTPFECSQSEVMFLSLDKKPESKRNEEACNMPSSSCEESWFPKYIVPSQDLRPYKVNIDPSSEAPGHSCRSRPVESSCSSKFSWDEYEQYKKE

TTK (human) = TTK (human) (UniProt P33981)
Chain of TTK (human) (P33981 whole entry, looked up): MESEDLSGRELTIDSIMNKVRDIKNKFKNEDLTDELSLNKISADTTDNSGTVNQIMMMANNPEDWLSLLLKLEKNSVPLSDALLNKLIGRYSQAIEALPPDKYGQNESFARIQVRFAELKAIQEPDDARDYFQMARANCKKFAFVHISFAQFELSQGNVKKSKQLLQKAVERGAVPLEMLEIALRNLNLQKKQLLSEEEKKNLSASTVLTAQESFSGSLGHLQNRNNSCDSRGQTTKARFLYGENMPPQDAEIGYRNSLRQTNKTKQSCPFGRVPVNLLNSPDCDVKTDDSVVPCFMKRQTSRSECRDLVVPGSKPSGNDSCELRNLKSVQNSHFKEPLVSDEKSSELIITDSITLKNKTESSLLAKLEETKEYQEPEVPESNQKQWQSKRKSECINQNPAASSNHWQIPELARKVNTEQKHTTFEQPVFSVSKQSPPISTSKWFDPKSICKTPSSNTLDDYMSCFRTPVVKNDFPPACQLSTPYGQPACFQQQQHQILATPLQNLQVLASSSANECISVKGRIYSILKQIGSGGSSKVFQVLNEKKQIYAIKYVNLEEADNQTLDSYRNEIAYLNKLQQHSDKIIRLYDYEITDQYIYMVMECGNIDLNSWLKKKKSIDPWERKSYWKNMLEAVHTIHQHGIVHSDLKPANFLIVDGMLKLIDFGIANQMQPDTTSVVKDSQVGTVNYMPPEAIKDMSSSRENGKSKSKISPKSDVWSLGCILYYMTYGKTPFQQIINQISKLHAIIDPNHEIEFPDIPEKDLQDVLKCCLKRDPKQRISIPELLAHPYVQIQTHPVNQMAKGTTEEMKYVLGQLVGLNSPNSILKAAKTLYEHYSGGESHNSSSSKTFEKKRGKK

CDKL3 (human) = CDKL3 (human) (UniProt Q8IVW4)
FGR (human) = FGR (human) (UniProt P09769)
RPS6KA1 KD2 (human) = RPS6KA1 KD2 (human) (UniProt Q15418)
INSRR (human) = INSRR (human) (UniProt P14616)
Chain of INSRR (human) (P14616 whole entry, looked up): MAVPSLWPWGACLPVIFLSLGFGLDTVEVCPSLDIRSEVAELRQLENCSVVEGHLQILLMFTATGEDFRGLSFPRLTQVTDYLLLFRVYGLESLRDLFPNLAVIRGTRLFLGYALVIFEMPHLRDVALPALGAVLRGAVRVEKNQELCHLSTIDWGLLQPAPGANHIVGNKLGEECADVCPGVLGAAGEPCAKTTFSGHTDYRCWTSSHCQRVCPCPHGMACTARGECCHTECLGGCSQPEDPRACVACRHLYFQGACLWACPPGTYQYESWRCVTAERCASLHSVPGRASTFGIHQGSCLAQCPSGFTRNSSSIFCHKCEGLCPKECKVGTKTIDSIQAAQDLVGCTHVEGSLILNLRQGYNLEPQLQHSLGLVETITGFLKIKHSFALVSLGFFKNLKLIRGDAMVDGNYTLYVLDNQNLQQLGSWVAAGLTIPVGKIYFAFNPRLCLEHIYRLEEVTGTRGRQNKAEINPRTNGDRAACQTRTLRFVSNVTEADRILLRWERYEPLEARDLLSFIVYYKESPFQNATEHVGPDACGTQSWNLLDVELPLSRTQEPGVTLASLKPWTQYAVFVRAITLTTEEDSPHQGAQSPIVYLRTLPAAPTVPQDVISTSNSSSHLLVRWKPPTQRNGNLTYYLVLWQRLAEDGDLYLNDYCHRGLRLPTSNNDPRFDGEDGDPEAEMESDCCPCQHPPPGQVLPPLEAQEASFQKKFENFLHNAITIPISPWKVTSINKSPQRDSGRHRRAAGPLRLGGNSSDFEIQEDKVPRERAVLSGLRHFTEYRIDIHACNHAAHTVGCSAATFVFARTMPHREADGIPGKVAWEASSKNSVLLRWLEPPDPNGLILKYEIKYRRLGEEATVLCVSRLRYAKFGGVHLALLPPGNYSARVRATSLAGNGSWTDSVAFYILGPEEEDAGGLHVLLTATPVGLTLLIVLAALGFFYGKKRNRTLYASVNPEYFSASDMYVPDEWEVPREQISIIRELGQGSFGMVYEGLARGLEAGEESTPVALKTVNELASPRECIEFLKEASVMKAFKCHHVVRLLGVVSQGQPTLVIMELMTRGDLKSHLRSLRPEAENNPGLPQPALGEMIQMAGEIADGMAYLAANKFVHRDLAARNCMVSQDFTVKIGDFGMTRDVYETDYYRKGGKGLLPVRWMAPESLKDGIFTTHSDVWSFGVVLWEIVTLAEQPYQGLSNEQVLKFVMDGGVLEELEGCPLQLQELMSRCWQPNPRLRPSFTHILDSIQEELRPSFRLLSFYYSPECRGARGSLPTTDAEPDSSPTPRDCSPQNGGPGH

[6] = test system: KIT (human), P10721 [V559D]
OXSR1 (human) = OXSR1 (human) (UniProt O95747)
CSNK1E (human) = CSNK1E (human) (UniProt P49674)
[7] = test system: PIK3CA (human), P42336 [Q546K]
GRK1 (human) = GRK1 (human) (UniProt Q15835)
KIT (human) = KIT (human) (UniProt P10721)
CDK17 (human) = CDK17 (human) (UniProt Q00537)
SIK1 (human) = SIK1 (human) (UniProt P57059)

Chain of CDKL1 (human) (Q00532 whole entry, looked up): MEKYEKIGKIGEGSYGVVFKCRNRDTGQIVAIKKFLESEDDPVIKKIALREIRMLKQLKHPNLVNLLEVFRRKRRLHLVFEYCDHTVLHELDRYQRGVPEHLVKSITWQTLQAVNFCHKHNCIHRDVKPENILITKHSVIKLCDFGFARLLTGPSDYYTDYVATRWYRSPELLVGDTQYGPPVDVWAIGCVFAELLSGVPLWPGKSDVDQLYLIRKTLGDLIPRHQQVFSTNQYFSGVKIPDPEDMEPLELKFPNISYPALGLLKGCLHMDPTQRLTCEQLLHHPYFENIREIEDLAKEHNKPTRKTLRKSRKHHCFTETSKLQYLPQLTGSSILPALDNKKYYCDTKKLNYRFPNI
Chain of DAPK3 (human) (O43293 whole entry, looked up): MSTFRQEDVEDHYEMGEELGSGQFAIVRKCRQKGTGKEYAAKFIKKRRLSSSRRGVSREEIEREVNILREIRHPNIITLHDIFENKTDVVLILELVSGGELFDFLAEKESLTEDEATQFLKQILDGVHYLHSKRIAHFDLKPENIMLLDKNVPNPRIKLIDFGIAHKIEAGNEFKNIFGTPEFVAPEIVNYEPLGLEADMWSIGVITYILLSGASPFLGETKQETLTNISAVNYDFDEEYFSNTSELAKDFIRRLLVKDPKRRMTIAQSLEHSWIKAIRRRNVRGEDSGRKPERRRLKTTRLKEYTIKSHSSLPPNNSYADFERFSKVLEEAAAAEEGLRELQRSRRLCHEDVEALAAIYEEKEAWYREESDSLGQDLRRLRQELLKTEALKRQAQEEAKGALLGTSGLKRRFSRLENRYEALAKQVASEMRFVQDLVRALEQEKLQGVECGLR
Chain of NIM1 (human) (Q8IY84 whole entry, looked up): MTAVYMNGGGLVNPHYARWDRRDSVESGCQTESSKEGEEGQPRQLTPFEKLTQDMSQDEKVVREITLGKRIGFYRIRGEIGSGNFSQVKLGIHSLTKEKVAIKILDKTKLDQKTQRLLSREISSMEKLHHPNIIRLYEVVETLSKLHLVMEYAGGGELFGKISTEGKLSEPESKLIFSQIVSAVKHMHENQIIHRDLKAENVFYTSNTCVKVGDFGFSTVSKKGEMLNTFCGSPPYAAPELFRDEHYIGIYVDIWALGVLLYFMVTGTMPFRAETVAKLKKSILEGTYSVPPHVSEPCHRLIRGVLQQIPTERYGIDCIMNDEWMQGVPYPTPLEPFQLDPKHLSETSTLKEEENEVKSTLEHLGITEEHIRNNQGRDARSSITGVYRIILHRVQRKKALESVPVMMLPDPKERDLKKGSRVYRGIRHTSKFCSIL

With Cn1c2ccccc2c2c3c(c4c5ccccc5n(CCC#N)c4c21)CNC3=O the kinase still bound, per cent of control (DAPK3 (human)) was 75%, the kinase still bound, per cent of control (CDKL1 (human)) was 81% and the kinase still bound, per cent of control (AKT1 (human)) was 100%. For the same compound, the kinase still bound, per cent of control (NIM1 (human)) was 100%, the kinase still bound, per cent of control (EPHB4 (human)) was 100% and the kinase still bound, per cent of control (TLK1 (human)) was 83%. The kinase still bound, per cent of control (PIK3CA (human)) was 100%, the kinase still bound, per cent of control (ALK (human)) was 2.1% and the kinase still bound, per cent of control [1] was 75%. It also gave a kinase still bound, per cent of control (MTOR (human)) of 52%, a kinase still bound, per cent of control (NEK2 (human)) of 100% and a kinase still bound, per cent of control (NEK1 (human)) of 99%. For the same compound, the kinase still bound, per cent of control (RAF1 (human)) was 100%, the kinase still bound, per cent of control (ACVR1B (human)) was 85% and the kinase still bound, per cent of control (STK33 (human)) was 1.5%. The kinase still bound, per cent of control [2] was 92%, the kinase still bound, per cent of control (MARK1 (human)) was 64% and the kinase still bound, per cent of control (PRKACA (human)) was 100%. For the same compound, the kinase still bound, per cent of control (LIMK2 (human)) was 100%, the kinase still bound, per cent of control (CDK18 (human)) was 91% and the kinase still bound, per cent of control (CRK2 (P.falciparum)) was 85%. It also gave a kinase still bound, per cent of control [3] of 19%, a kinase still bound, per cent of control (MAST1 (human)) of 100% and a kinase still bound, per cent of control [4] of 75%. It also gave a kinase still bound, per cent of control (MAP4K1 (human)) of 33%, a kinase still bound, per cent of control [5] of 0.1% and a kinase still bound, per cent of control (LRRK2 (human)) of 19%. It also gave a kinase still bound, per cent of control (GAK (human)) of 2%, a kinase still bound, per cent of control (IRAK3 (human)) of 12% and a kinase still bound, per cent of control (TTK (human)) of 23%. For the same compound, the kinase still bound, per cent of control (CDKL3 (human)) was 91%, the kinase still bound, per cent of control (FGR (human)) was 84% and the kinase still bound, per cent of control (RPS6KA1 KD2 (human)) was 88%. For the same compound, the kinase still bound, per cent of control (INSRR (human)) was 100%, the kinase still bound, per cent of control [6] was 71% and the kinase still bound, per cent of control (OXSR1 (human)) was 100%. It also gave a kinase still bound, per cent of control (CSNK1E (human)) of 100%, a kinase still bound, per cent of control [7] of 100% and a kinase still bound, per cent of control (GRK1 (human)) of 15%. For the same compound, the kinase still bound, per cent of control (KIT (human)) was 81%, the kinase still bound, per cent of control (CDK17 (human)) was 100% and the kinase still bound, per cent of control (SIK1 (human)) was 83%.
